Experiments:
[1] = tested on: mouse primary hepatocytes; experiment: Hepatocyte unesterified (free) LCFA determination; format: cell-based; details: normal physiological glucose (6 mM), inhibitor 10 μg/mL
Description: Mouse hepatocytes were isolated from livers of male wild-type and L-FABP null mice as described. To study the effect of TOFA and C75 at different glucose levels, mouse hepatocytes were cultured overnight with DMEM/F-12 supplemented with 5% FBS. Cells were incubated with glucose-free DMEM supplemented with fatty acid-free BSA (40 μM), 100 nM insulin, 10 nM dexamethasone, and without (no inhibitor) or with the de novo fatty acid synthesis inhibitors C75 or TOFA (10 μg/mL) for 30 min (1 mL/well). Cells were incubated further for 5 hr with 6 or 20 mM glucose without or with the inhibitors.
Cultured mouse hepatocytes were plated 4 × 10^5 cells per well in 12-well tissue culture plates. After incubation with TOFA or C75 at different glucose levels as described previously, hepatocytes were washed with cold PBS 4x, scraped with cold PBS (with protease inhibitor), and homogenized with a probe sonicator (Sonic Dismembrator 550, Fisher Scientific, Waltham, MA, USA). A 20 μL sample was saved for protein analysis using the Bio-Rad protein assay reagent, (Bio-Rad, Hercules, CA, USA). […]
The LCFA content of each sample was measured with the Free Fatty Acid Quantification Kit from BioVision, Inc. (Mountain View, California, USA) according to manufacturer's instructions, using a standard of palmitic acid included in the kit. […]

L-FABP [2] = target: T1, L-FABP (Rattus norvegicus, UniProt P02692); experiment: Displacement of L-FABP-bound ANS; format: binding; details: read-out: K i, displacing L-FABP-bound ANS
T1 construct: made in house
T1 sequence (P02692 1-127): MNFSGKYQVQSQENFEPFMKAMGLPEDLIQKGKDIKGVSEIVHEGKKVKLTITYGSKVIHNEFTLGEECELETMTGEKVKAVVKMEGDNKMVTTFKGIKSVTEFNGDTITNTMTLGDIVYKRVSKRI
Description: (§1) Advantage was taken of the fact that NBD-stearic acid bound to L-FABP (two ligand binding sites) as well as SCP-2 (single-ligand binding site) to design a NBD-stearic acid displacement assay that allowed determination of which fatty acid synthesis inhibitors or their CoA thioesters bound to these LCFA/LCFA-CoA binding proteins. Displacement of NBD-stearate from L-FABP and SCP-2 was determined by incubating L-FABP or SCP-2 (25 nM in 10 mM phosphate buffer) with NBD stearate (40 nM) for 12 min to obtain maximal fluorescence, followed by titration with increasing amount of ligand. From the displacement curve, the K i value was calculated as described. All experiments were carried out with a thermostated cuvette to maintain temperature at 24°C using a circulating water bath. ANS displacement assay was performed as described.

SCP-2 = target: T2, SCP-2 (Homo sapiens, UniProt P22307); experiment: Displacement of SCP-2-bound NBD-stearic acid; format: binding
T2 construct: made in house
T2 sequence (P22307 1-143 isoform P22307-2): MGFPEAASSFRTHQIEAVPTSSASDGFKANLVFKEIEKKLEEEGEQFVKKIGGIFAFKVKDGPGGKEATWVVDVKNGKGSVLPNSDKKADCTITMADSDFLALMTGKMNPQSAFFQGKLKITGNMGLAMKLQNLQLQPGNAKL
Description: as §1

L-FABP [3] = target: T1, L-FABP; experiment: Displacement of L-FABP-bound NBD-stearic acid; format: binding
Description: as §1

L-FABP [4] = target: T1, L-FABP; experiment: L-FABP tyrosine fluorescence quenching; format: binding; details: L-FABP 100 nM
Description: Tyrosine fluorescence of L-FABP (100 nM) in 10 mM phosphate buffer was monitored by scanning from 290 to 400 nm, with excitation wavelength 280 nm, before and after small increments of added binding ligand. The binding curve was constructed by plotting tyrosine fluorescence intensity at 305 nm versus concentration of the ligand. K d was then calculated as described.

PPARα = details: COS7 cells; cited from earlier work

Q: For `C=C1C(=O)OC(CCCCCCCC)C1C(=O)O` (stereo not drawn) [C75, 4-methylene-2-octyl-5-oxotetrahydrofuran-3-carboxylic acid], which “Unesterified fatty acid level” value [1] is on record?
A: Neither TOFA nor C75 significantly impacted

Q: And the Ki (L-FABP [2])?
A: 5590 ± 310 nM

Q: What about the “Displacement of NBD-stearic acid bound to SCP-2 (in words)” value (SCP-2) of the same compound?
A: barely detectable

Q: What about the “K i, displacing SCP-2-bound NBD-stearic acid” value (SCP-2; SCP-2 25 nM, NBD stearate 40 nM, 24°C) of the same compound?
A: not bound^(a)

Q: And the “Displacement of NBD-stearic acid bound to L-FABP (in words)” value (L-FABP [3])?
A: weaker

Q: With `CCCCCCCCCCCCCCOc1ccc(C(=O)O)o1` [TOFA, 5-tetradecyloxy-2-furancarboxylic acid] as the compound, how does the “Unesterified fatty acid level” value [1] read?
A: Neither TOFA nor C75 significantly impacted

Q: And the Ki (SCP-2; SCP-2 25 nM, NBD stearate 40 nM, 24°C, read-out: K i, displacing SCP-2-bound NBD-stearic acid)?
A: 227 ± 20 nM

Q: And the “Quenching of L-FABP tyrosine emission (in words)” value (L-FABP [4])?
A: efficiently quenched

Q: And the Kd (L-FABP [4]; 10 mM phosphate buffer, read-out: K d by L-FABP tyrosine quenching (converted))?
A: 57 nM

Q: What about the Ki (L-FABP [3]; L-FABP 25 nM, NBD stearate 40 nM, 24°C, read-out: K i, displacing L-FABP-bound NBD-stearic acid) of the same compound?
A: 66 ± 3 nM

Q: What about the “Fluorescence of L-FABP-bound NBD-stearic acid decreasing to” value (L-FABP [3]; at 650 nM TOFA) of the same compound?
A: 40%

Q: And the “Transactivation of PPARα” value (PPARα)?
A: transactivated
